US9457087B2, “Stable crystal modifications of DOTAP chloride” (Merck Patent GmbH, priority 2004, dated 2016)
One block for each compound: values may come before it.

Key:
[1] = DSC principal phase transition temperatures of multilamellar liposomes in water; assay type: physicochemical; conditions: heating cycles, lipid 0.1 g/ml, 1° C./min
Procedure: Differential scanning caliometry (DSC) measurements are carried out on multilamellar liposomes in water. Liposomes are prepared by the thin-film method from the calculated amounts of racemic or enantiomerically pure DOTAP chloride. The lipid concentration here is in each case 0.1 g/ml. Suitable amounts of these dispersions are then introduced into sealable aluminium crucibles and measured using a 204 Phoenix calorimeter (Netzsch, Seib, Germany). In each case, three successive heating/cooling runs from −50° C. to +20° C. are carried out at 1° C./min.
For all three DOTAP chloride variants, phase transition temperatures below 0° C. are found. For the cooling cycles, this is in each case at −23° C. to −24° C. Differences between racemic and enantiomerically pure DOTAP chloride are in each case evident in the heating cycles. […] (see FIG. 6).

[2] = Solubility in acetonitrile; assay type: physicochemical; conditions: room temperature
[3] = Hygroscopicity at normal atmospheric humidity; assay type: physicochemical; conditions: normal atmospheric humidity levels
[4] = storage under protective gas at −20° C.; guaranteed by manufacturer; cited from earlier work
[5] = Storage stability of crystalline DOTAP chlorides (HPLC purity and content); assay type: physicochemical; conditions: 25° C., 60% relative humidity, exclusion of air
Procedure: In order to determine the stability of crystalline DOTAP chlorides, the substances are stored together with comparative samples at 25° C. and 60% relative humidity with exclusion of air. The remaining content of DOTAP chloride is measured at periodic intervals and quoted in comparison to the initial value.
The purity and content of DOTAP chloride are determined by means of HPLC.

- endothermic phase transition temperature [1]: around −12.5 °C
Structure (SMILES): CCCCCCCC/C=C\CCCCCCCC(=O)OC[C@@H](C[N+](C)(C)C)OC(=O)CCCCCCC/C=C\CCCCCCCC.[Cl-] [(2R)-DOTAP chloride]

Structure (SMILES): CCCCCCCC/C=C\CCCCCCCC(=O)OCC(C[N+](C)(C)C)OC(=O)CCCCCCC/C=C\CCCCCCCC.[Cl-] (racemic) [racemate, N,N,N-trimethyl-2,3-bis[[(9Z)-1-oxo-9-octadecenyl]oxy]-1-propanaminium chloride]
- endothermic phase transition temperature [1]: −17.5 °C
- solubility in acetonitrile [2]: virtually insoluble

- endothermic phase transition temperature [1]: around −12.5 °C
Structure (SMILES): CCCCCCCC/C=C\CCCCCCCC(=O)OC[C@H](C[N+](C)(C)C)OC(=O)CCCCCCC/C=C\CCCCCCCC.[Cl-] [(2S)-DOTAP]

Structure (SMILES): CCCCCCCC/C=C\CCCCCCCC(=O)OCC(C[N+](C)(C)C)OC(=O)CCCCCCC/C=C\CCCCCCCC.[Cl-] (stereo not drawn) [amorphous DOTAP chloride]
- hygroscopicity [3]: extremely hygroscopic
- shelf life [4]: about 6 months

Structure (SMILES): CCCCCCCC/C=C\CCCCCCCC(=O)OCC(C[N+](C)(C)C)OC(=O)CCCCCCC/C=C\CCCCCCCC.[Cl-] (racemic) [(R,S)-DOTAP chloride crystalline type I, N,N,N-trimethyl-2,3-bis[[(9Z)-1-oxo-9-octadecenyl]oxy]-1-propanaminium chloride]
- % by weight (content of DOTAP chloride) ([5]; exposure time 0 months): 98.6%
- Area-% (HPLC purity) ([5]; exposure time 0 months): 100%
- % by weight (content of DOTAP chloride) ([5]; exposure time 1 month): 97.%
- Area-% (HPLC purity) ([5]; exposure time 1 month): 100.0%
- % by weight (content of DOTAP chloride) ([5]; exposure time 2 months): 97.9%
- Area-% (HPLC purity) ([5]; exposure time 2 months): 100.0%
- % by weight (content of DOTAP chloride) ([5]; exposure time 3 months): 97.2%
- Area-% (HPLC purity) ([5]; exposure time 3 months): 100.0%
- % by weight (content of DOTAP chloride) ([5]; exposure time 6 months): 98.2%
- Area-% (HPLC purity) ([5]; exposure time 6 months): 100.0%
- % by weight (content of DOTAP chloride) ([5]; exposure time 12 months): 98.7%
- Area-% (HPLC purity) ([5]; exposure time 12 months): 100.0%
